Tests used:
[1] = tested on: MAPK phosphorylation in PANC-1 pancreatic cancer cell line; assay: MAPK cell-based phosphorylation assay (cell-direct ELISA, EGF stimulation); details: Homo sapiens; for inhibition at 10 µM: * = tested at 10 μM
Method: Cell lines: Tumor-derived pancreatic cancer cell lines PANC-1 were purchased from ATCC and were maintained according to ATCC recommendation.
Method: Cells were plated at 7500 cells/well density in 96-wells plate, starved over night, and the small molecules to be tested were added to the cells in the final concentration of 30 μM with 0.3% DMSO for 6 hours incubation at 37° C. For IC50 value determination, serial dilutions of compounds were added to cells under the same conditions. Next, cells were stimulated with 1.5 ng/ml EGF for 15 min. followed by cell fixation with 4% Formaldehyde in PBS at RT for 20 min. Phosphorylation level of MAPK was determined by Cell-direct ELISA.
Cell-direct ELISA: For each well, cells were permeabilized with PBS-Triton 0.1%, quenched with H2O2 0.6% in PBS-Triton 0.1%, and probed with anti-phospho-MAPK antibodies (R&D Systems) followed by HRP-conjugated secondary antibody (Jackson Immunoresearch, West Grove, Pa.). Next, a solution 50 μM of the fluorescent substrate AmpliFlu Red (Sigma) was added and incubated at RT for 20 min. At the end of the incubation time, fluorescence was measured at 595 nm on a microplate reader (AF2200; Eppendorf, Inc., Hamburg, Germany).

[2] = tested on: MIA-PACA2 pancreatic cancer cell lines; assay: Cell proliferation assay (CellTiter 96 AQueous One); assay type: cell-based; details: Homo sapiens, MIA PaCa-2; at 30 μM, MIA-PACA2

SMILES	inhibition at 30 µM [1] [%]	other results
COC(=O)c1cc(NCC2NC(CC(C)C)=NO2)ccc1Cl (stereo not shown)	1 to 25	
O=[N+]([O-])c1cc(C(F)(F)F)ccc1Sc1nc2c(c(C(F)(F)F)n1)CCCC2	1 to 25	
CCOC(=O)c1ccnc(N2CCC(C)CC2c2ccc(CC)o2)c1[N+](=O)[O-] (stereo not shown)	25 to 50	
N#Cc1ccc(CC(=O)Cc2ccnc(-c3ccccn3)n2)cc1	1 to 25	
Nc1nc(-c2ccccn2)nc2c(-c3ccccn3)csc12		inhibition at 10 µM [1]: 76 to 100%
COc1ncc(CCC(=O)Nc2nc(-c3ccccn3)nc3sccc23)cn1		inhibition at 10 µM [1]: 76 to 100%
Cc1sc2c(O)nc(-c3nccn3C)nc2c1-c1cccc(OC(F)(F)F)c1		inhibition at 10 µM [1]: 25 to 50%
O=C(CCc1cnn(-c2ccccc2)c1)Nc1nnc(-c2ccccn2)[nH]1 [drawing 992]	25 to 50	
CC(C)NC(=O)Nc1cccc(C(=O)Nc2nnc(-c3ccccn3)[nH]2)c1 [drawing 993]	1 to 25	
COc1ccc(CCC(=O)Nc2nnc(-c3ccccn3)[nH]2)cc1F [drawing 994]	51 to 75	
O=C(Nc1nnc(-c2ccccn2)[nH]1)c1ccc2c(c1)CCO2 [drawing 995]	1 to 25	
O=C(Cc1c[nH]c2ccccc12)Nc1nnc(-c2ccccn2)[nH]1 [drawing 996]	51 to 75	
O=C(Nc1nnc(-c2ccccn2)[nH]1)C1CCn2c(cnc2-c2ccccc2)C1 (stereo not shown) [drawing 997]	1 to 25	
O=C(Nc1nnc(-c2ccccn2)[nH]1)c1ccn(-c2ccccc2)n1 [drawing 998]	1 to 25	
O=C(Nc1nnc(-c2ccccn2)[nH]1)c1ccn(-c2cccc(F)c2)n1 [drawing 999]	1 to 25	
COc1ccc2c(ccn2CC(=O)Nc2nnc(-c3ccccn3)[nH]2)c1 [drawing 1000]	1 to 25	
O=C(CCc1c[nH]c2ccccc12)Nc1nnc(-c2ccccn2)[nH]1 [drawing 1001]	25 to 50	
O=C(Nc1nnc(-c2ccccn2)[nH]1)c1ccc2ccccc2n1 [drawing 1002]	1 to 25	
CC(C)c1nc(CC(=O)Nc2nnc(-c3ccccn3)[nH]2)cs1 [drawing 1003]	1 to 25	
O=C(Nc1nnc(-c2ccccn2)[nH]1)c1ccc(CN2C(=O)CCC2=O)cc1 [drawing 1004]	1 to 25	
O=C(CC1C=CCC1)Nc1nnc(-c2ccccn2)[nH]1 (stereo not shown) [drawing 1005]	1 to 25	
COc1ccc(CC(=O)Nc2nnc(-c3ccccn3)[nH]2)cc1 [drawing 1006]	1 to 25	
O=C(Cc1cccs1)Nc1nnc(-c2ccccn2)[nH]1 [drawing 1007]	25 to 50	
O=C(Nc1nnc(-c2ccccn2)[nH]1)C1CCCC1 [drawing 1008]	1 to 25	
O=C(Nc1nnc(-c2ccccn2)[nH]1)c1ncoc1-c1cccs1 [drawing 1009]	25 to 50	
O=C(Cn1c(=O)oc2ccccc21)Nc1nnc(-c2ccccn2)[nH]1 [drawing 1010]	1 to 25	
O=C(CCNC(=O)c1ccco1)Nc1nnc(-c2ccccn2)[nH]1 [drawing 1011]	1 to 25	

SMILES	inhibition at 30 µM [1] [%]	other results
Cc1ccc(CC(=O)Nc2nnc(-c3ccccn3)[nH]2)cn1 [drawing 1012]	1 to 25	
CC(Oc1ccccc1C#N)C(=O)Nc1nnc(-c2ccccn2)[nH]1 (stereo not shown) [drawing 1013]	51 to 75	
CC(Oc1ccc(C(=O)Nc2nnc(-c3ccccn3)[nH]2)cn1)c1ccccc1 (stereo not shown) [drawing 1014]	25 to 50	
O=C(Nc1nnc(-c2ccccn2)[nH]1)C1CCCN(c2ncccn2)C1 (stereo not shown) [drawing 1015]	1 to 25	
CC(OCc1ccccc1)C(=O)Nc1nnc(-c2ccccn2)[nH]1 (stereo not shown) [drawing 1016]	1 to 25	
O=C(Nc1nnc(-c2ccccn2)[nH]1)C1CCCC(C(F)(F)F)C1 (stereo not shown) [drawing 1017]	51 to 75	
Cc1ccc(CC(=O)Nc2nnc(-c3ccccn3)[nH]2)s1 [drawing 1018]	1 to 25	
O=C(Nc1nnc(-c2ccccn2)[nH]1)C1CCCN(c2cnccn2)C1 (stereo not shown) [drawing 1019]	1 to 25	
Cc1nc2nc(C(F)(F)F)nn2c(C)c1CC(=O)Nc1nnc(-c2ccccn2)[nH]1 [drawing 1020]	1 to 25	
O=C(Nc1nnc(-c2ccccn2)[nH]1)c1cccc(N2CCCS2(=O)=O)c1 [drawing 1021]	1 to 25	
CC(C)C(=O)Nc1nc(CC(=O)Nc2nnc(-c3ccccn3)[nH]2)cs1 [drawing 1022]	1 to 25	
CC(C)(C)c1nc(C(=O)Nc2nnc(-c3ccccn3)[nH]2)cs1 [drawing 1023]	1 to 25	
O=C(Nc1nnc(-c2ccccn2)[nH]1)C1CC(=O)N(Cc2cccc(C(F)(F)F)c2)C1 (stereo not shown) [drawing 1024]	25 to 50	
O=C(Nc1nnc(-c2ccccn2)[nH]1)C1Cc2cc(Cl)ccc2O1 (stereo not shown) [drawing 1025]	1 to 25	
O=C(Cc1ccc2c(c1)OCCO2)Nc1nnc(-c2ccccn2)[nH]1 [drawing 1026]	1 to 25	
O=C(Nc1nnc(-c2ccccn2)[nH]1)C1CCN(C(=O)c2cccs2)CC1 [drawing 1027]	1 to 25	
O=C(Nc1nnc(-c2ccccn2)[nH]1)c1ccn(-c2cccc(Cl)c2)n1 [drawing 1028]	25 to 50	
CS(=O)(=O)Cc1ccc(C(=O)Nc2nc(-c3ccccn3)cs2)cc1 [drawing 1029]	1 to 25	
O=C(Cn1cnc2ccccc2c1=O)Nc1nc(-c2ccccn2)cs1 [drawing 1030]	1 to 25	
O=C(Nc1nc(-c2ccccn2)cs1)C1CC(=O)N(c2ccc3c(c2)OCCO3)C1 (stereo not shown) [drawing 1031]	25 to 50	
O=C(Nc1nc(-c2ccccn2)cs1)c1cccnc1 [drawing 1032]	1 to 25	
O=C(Cc1cccc(F)c1)Nc1nc(-c2ccccn2)cs1 [drawing 1033]	1 to 25	
O=C(Nc1nc(-c2ccccn2)cs1)c1ccncc1 [drawing 1034]	25 to 50	
O=C(Nc1nc(-c2ccccn2)cs1)c1ccc(F)cc1 [drawing 1035]	1 to 25	
O=c1nc(-c2ccccn2)[nH]c2scc(-c3ccccc3Cl)c12 [drawing 1036]	25 to 50	
O=c1nc(-c2ccccn2)[nH]c2sc(-c3ccccc3)cc12 [drawing 1037]	25 to 50	
O=c1nc(-c2ccccn2)[nH]c2c1sc1ccccc12 [drawing 1038]	76 to 100	

SMILES	inhibition at 30 µM [1] [%]	other results
COCC(C)Nc1nc(-c2ccccn2)nc2sc(C)c(-c3ccccc3)c12 (stereo not shown) [drawing 1040]	76 to 100	IC50 [1]: 11 to 30 µM
CCc1cc(NNC(=O)c2ccc(C#N)cc2)nc(-c2ccccn2)n1 [drawing 1041]	76 to 100	IC50 [1]: 2 to 10 µM
CC(O)CNc1nc(-c2ccccn2)nc2scc(-c3ccccc3)c12 (stereo not shown) [drawing 1042]	25 to 50	
Cc1sc2nc(-c3ccccn3)nc(NCCCO)c2c1-c1ccccc1 [drawing 1043]	1 to 25	
Cc1cccc(CN(Cc2ccccn2)Cc2nccn2C)c1 [drawing 1045]	25 to 50	
Oc1ccc(C2(c3cccc(Cl)c3)CCCC2)cc1 [drawing 1047]	76 to 100	
COC(=O)c1ccc(C(=O)NCC2(c3ccccc3OC)CCCC2)nc1 [drawing 1048]	1 to 25	
CCOc1cc(S(=O)(=O)N(Cc2ccccc2)Cc2ccccc2)c(OCC)cc1C [drawing 1049]	1 to 25	
COc1ccc(CN(CC[S+]([O-])c2cc(Cl)ccc2Cl)C2CC2)cc1 (stereo not shown) [drawing 1050]	25 to 50	
Oc1nc(-c2ccccn2)nc2c(-c3ccc4c(c3)CCCO4)csc12 [drawing 1778]		inhibition at 30 µM [2]: 76 to 100%
CCn1nc(C)cc1-c1csc2c(O)nc(-c3ccccn3)nc12 [drawing 1779]		inhibition at 30 µM [2]: 76 to 100%
Oc1nc(-c2ccccn2)nc2c(-c3ccnn3-c3ccccn3)csc12 [drawing 1780]		inhibition at 30 µM [2]: 76 to 100%
Cc1sc2c(O)nc(-c3ccccn3)nc2c1-c1ccccc1 [drawing 1781]		inhibition at 30 µM [2]: 76 to 100%
Nc1nc(-c2ccccn2)nc2scc(C(=O)O)c12 [drawing 1782]		inhibition at 30 µM [2]: 1 to 25%
COC(=O)c1cc2nc(-c3ccccn3)nc(O)c2s1 [drawing 1783]		inhibition at 30 µM [2]: 76 to 100%
Oc1nc(-c2ccccn2)nc2c(-c3cnc4ccccc4c3)csc12 [drawing 1784]		inhibition at 30 µM [2]: 76 to 100%
Oc1nc(-c2ccccn2)nc2c(-c3ccc(Cl)c(Cl)c3)csc12 [drawing 1785]		inhibition at 30 µM [2]: 76 to 100%
Oc1nc(-c2ccccn2)nc2c(-c3cncc(F)c3)csc12 [drawing 1786]		inhibition at 30 µM [2]: 76 to 100%
Oc1nc(-c2ccccn2)nc2c(-c3cc(C(F)(F)F)ccc3F)csc12 [drawing 1787]		inhibition at 30 µM [2]: 76 to 100%
Oc1nc(-c2ccccn2)nc2c(-c3cncc(C(F)(F)F)c3)csc12 [drawing 1788]		inhibition at 30 µM [2]: 76 to 100%
Cc1cncc(-c2csc3c(O)nc(-c4ccccn4)nc23)c1 [drawing 1789]		inhibition at 30 µM [2]: 76 to 100%
Cc1sc2c(O)nc(-c3ccccn3)nc2c1-c1cccnc1 [drawing 1790]		inhibition at 30 µM [2]: 76 to 100%
COc1cnc(-c2ccccn2)nc1O [drawing 1791]		inhibition at 30 µM [2]: 76 to 100%
COc1cnc(C2CCCN2)nc1O (stereo not shown) [drawing 1792]		inhibition at 30 µM [2]: 51 to 75%
COc1nc(-c2ccccn2)nc2c(C3CCCC3)csc12 [drawing 1793]		inhibition at 30 µM [2]: 76 to 100%
CCC(C)c1csc2c(OC)nc(-c3ccccn3)nc12 (stereo not shown) [drawing 1794]		inhibition at 30 µM [2]: 76 to 100%

Source: patent US10940139B2, “Compounds that interact with the Ras superfamily for the treatment of cancers, inflammatory diseases, rasopathies, and fibrotic disease” (Shy Therapeutics LLC, priority 2017, dated 2021)
